From US12630806B2 (priority 2020, dated 2026)
“Also recorded” adds a separate entry of the source. Like-named read-outs stand apart in the source and are kept apart here.

Assays:
[1] = molecular target: T1, MoChiO7A, Magnaporthe (anamorph Pyricularia) oryzae 70-15, SEQ ID NO: 21 (Table 2: SEQ ID NO: 35) (Pyricularia oryzae, UniProt G4NAH7); conditions: dehydrogenase assay, 0.1 mM DCIP, 0.1 μM enzyme, 50 mM HEPES pH 7.0, MoChiO7A
[2] = molecular target: T2, FgChiO7B, Fusarium graminearum, SEQ ID NO: 20 (Table 2: SEQ ID NO: 33) (Fusarium graminearum, UniProt A0ACM8RFH6); conditions: dehydrogenase assay, 0.1 mM DCIP, 0.1 μM enzyme, 50 mM HEPES pH 7.0, FgChiO7B
[3] = molecular target: T1, MoChiO7A, Magnaporthe (anamorph Pyricularia) oryzae 70-15, SEQ ID NO: 21 (Table 2: SEQ ID NO: 35); conditions: oxidase assay, 50 mM NaOAc pH 5.2, MoChiO7A
[4] = molecular target: T2, FgChiO7B, Fusarium graminearum, SEQ ID NO: 20 (Table 2: SEQ ID NO: 33); conditions: oxidase assay, 50 mM NaOAc pH 5.2, FgChiO7B
[5] = molecular target: T3, FgCelDH7C, Fusarium graminearum PH-1, SEQ ID NO: 1 (Table 2: SEQ ID NO: 31) (Fusarium graminearum, UniProt I1RWY4); conditions: dehydrogenase assay, 0.1 mM DCIP, 0.1 μM enzyme, 50 mM HEPES pH 7.0, FgCelDH7C
[6] = molecular target: T3, FgCelDH7C, Fusarium graminearum PH-1, SEQ ID NO: 1 (Table 2: SEQ ID NO: 31); assay type: biochemical; conditions: oxidase assay, 20 mM cellobiose; for V0/E: estimated
[7] = tested on: FgAA7D, Fusarium graminearum PH-1, SEQ ID NO: 113; assay type: biochemical; conditions: 150 nM enzyme, 10 mM cellobiose
[8] = tested on: PaLPMO9H; assay: AA7-LPMO synergy assay with PaLPMO9H on PASC or Avicel (HPAEC-PAD); assay type: biochemical, Podospora anserina
[9] = molecular target: T4, PsAA7A, Phytophthora sojae, SEQ ID NO: 7 (Table 2: SEQ ID NO: 37) (Phytophthora sojae, UniProt G4YI39); assay type: biochemical
T4 sequence (G4YI39 23-504): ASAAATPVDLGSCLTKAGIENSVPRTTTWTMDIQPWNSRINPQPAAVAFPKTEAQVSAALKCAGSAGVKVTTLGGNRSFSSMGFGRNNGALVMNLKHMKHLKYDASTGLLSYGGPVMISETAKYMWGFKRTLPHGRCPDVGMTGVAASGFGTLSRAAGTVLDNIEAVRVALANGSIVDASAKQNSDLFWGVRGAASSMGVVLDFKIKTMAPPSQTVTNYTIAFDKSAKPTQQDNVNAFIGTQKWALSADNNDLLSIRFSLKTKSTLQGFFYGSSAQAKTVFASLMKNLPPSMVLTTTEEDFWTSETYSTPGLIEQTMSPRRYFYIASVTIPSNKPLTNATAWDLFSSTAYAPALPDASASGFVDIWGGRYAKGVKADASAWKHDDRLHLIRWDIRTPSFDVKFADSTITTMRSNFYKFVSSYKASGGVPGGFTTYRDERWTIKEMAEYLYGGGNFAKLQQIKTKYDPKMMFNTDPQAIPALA

[10] = molecular target: T4, PsAA7A, Phytophthora sojae, SEQ ID NO: 7 (Table 2: SEQ ID NO: 37); assay type: biochemical; remark: listed apart in the source
[11] = assay type: biochemical; conditions: GalA; V0/E values

Molecule: CC(=O)N[C@H]1[C@H](O[C@H]2[C@H](O)[C@@H](NC(C)=O)C(O)O[C@@H]2CO)O[C@H](CO)[C@@H](O)[C@@H]1O (some centres unmarked) [Chitobiose, chitobiose]
- kcat [1]: 22.4 ± 0.5 s⁻¹
- kcat [2]: 29.3 ± 0.41 s⁻¹
- kcat [3]: 4.37 ± 0.12 s⁻¹
- kcat [4]: 2.27 ± 0.03 s⁻¹

Molecule: OC[C@H]1O[C@@H](O[C@H]2[C@H](O)[C@@H](O)C(O)O[C@@H]2CO)[C@H](O)[C@@H](O)[C@@H]1O (some centres unmarked) [Cellobiose, cellobiose]
- kcat [5]: 30.8 ± 0.81 s⁻¹
- normalized rate (slope of linear region/E), initial burst ([6]; 150 μM enzyme): 0.00029 s⁻¹
- reaction rate, second phase ([6]; 150 μM enzyme): 7e-05 s⁻¹
- normalized rate (slope of linear region/E), initial burst ([6]; 500 μM enzyme): 0.00013 s⁻¹
- reaction rate, second phase ([6]; 500 μM enzyme): 4.1e-05 s⁻¹
- V0/E ([6]; 150 uM enzyme): (2.93E−4^c) s^−1
- V0/E ([6]; 500 uM enzyme): 1.29E−4^b s^−1
- Estimated oxidase activity [7]: 0.001 s⁻¹

Molecule: CC(=O)N[C@H]1[C@H](O[C@H]2[C@H](O)[C@@H](NC(C)=O)C(O)O[C@@H]2CO)O[C@H](CO)[C@@H](O[C@@H]2O[C@H](CO)[C@@H](O)[C@H](O)[C@H]2NC(C)=O)[C@@H]1O (some centres unmarked) [Chitotriose, chitotriose]
- kcat [3]: 3.71 ± 0.09 s⁻¹
- kcat [4]: 6.14 ± 0.29 s⁻¹

Molecule: O=C1C=CC(=Nc2cc(Cl)c(O)c(Cl)c2)C=C1 [DCIP, 2,6-dichlorophenolindophenol]
- synergy with PaLPMO9H: released cello-oligosaccharides from PASC [8]: inhibited the observed synergy

Molecule: CC(=O)N[C@H]1C(O)O[C@H](CO)[C@@H](O)[C@@H]1O (some centres unmarked) [GlcNAc]
- kcat [3]: 3.8 ± 0.07 s⁻¹
- kcat [4]: 6.76 ± 0.31 s⁻¹

Molecule: O=C(O)[C@H]1OC(O)[C@H](O)[C@@H](O)[C@H]1O (some centres unmarked) [GalA, galacturonic acid]
- V0/E [9]: 1.7E−4^d s^−1
- oxidase activity estimated from the linear segments after the initial delayed burst [9]: 1.7±0.6 ×10^−4 s^−1
- dehydrogenase activity (V0/E) [10]: 6.4 s⁻¹

Molecule: CC(=O)N[C@H]1C(O)O[C@H](CO)[C@H](O)[C@@H]1O (some centres unmarked) [GalNAc]
- kcat [3]: 3.67 ± 0.06 s⁻¹

Molecule: OC[C@H]1O[C@@H](O[C@H]2[C@H](O)[C@@H](O)[C@H](O[C@H]3[C@H](O)[C@@H](O)[C@H](O[C@H]4[C@H](O)[C@@H](O)C(O)O[C@@H]4CO)O[C@@H]3CO)O[C@@H]2CO)[C@H](O)[C@@H](O)[C@@H]1O (some centres unmarked) [Cellotetraose, cellotetraose]
- kcat [5]: 39.2 ± 0.76 s⁻¹

Molecule: OC[C@H]1O[C@@H](O[C@H]2[C@H](O)[C@@H](O)[C@H](O[C@H]3[C@H](O)[C@@H](O)C(O)O[C@@H]3CO)O[C@@H]2CO)[C@H](O)[C@@H](O)[C@@H]1O (some centres unmarked) [Cellotriose, cellotriose]
- kcat [5]: 36.1 ± 0.74 s⁻¹

B1: PsAA7A: AA7 clade IIb enzyme from Phytophthora sojae, active on glucuronic and galacturonic acid (protein, listed as Phytophthora sojae)
chain: MVSSASSAIFALCSLIAAQSGLASAAATPVDLGSCLTKAGIENSVPRTTTWTMDIQPWNSRINPQPAAVAFPKTEAQVSAALKCAGSAGVKVTTLGGNRSFSSMGFGRNNGALVMNLKHMKHLKYDASTGLLSYGGPVMISETAKYMWGFKRTLPHGRCPDVGMTGVAASGFGTLSRAAGTVLDNIEAVRVALANGSIVDASAKQNSDLFWGVRGAASSMGVVLDFKIKTMAPPSQTVTNYTIAFDKSAKPTQQDNVNAFIGTQKWALSADNNDLLSIRFSLKTKSTLQGFFYGSSAQAKTVFASLMKNLPPSMVLTTTEEDFWTSETYSTPGLIEQTMSPRRYFYIASVTIPSNKPLTNATAWDLFSSTAYAPALPDASASGFVDIWGGRYAKGVKADASAWKHDDRLHLIRWDIRTPSFDVKFADSTITTMRSNFYKFVSSYKASGGVPGGFTTYRDERWTIKEMAEYLYGGGNFAKLQQIKTKYDPKMMFNTDPQAIPALA
modifications: peptide (1)..(504) PsAA7A from Phytophthora sojae - an AA7 enzyme belonging to clade IIb
- synergy to LPMO catalyzed degradation of avicel ([8]; Avicel 0.5% (w/v), 35° C., 24 h, PaLPMO9H, AA7 with its substrate (cellotetraose or galacturonic acid 0.8 mM)): does not (or does only with a far lower extent) confer synergy
- dehydrogenase/oxidase ratio [11]: about 4×10^4

B2: HRP: horseradish peroxidase, captures H2O2 (protein, UniProt P00433 31-338, looked up)
Peroxidase C1A: QLTPTFYDNSCPNVSNIVRDTIVNELRSDPRIAASILRLHFHDCFVNGCDASILLDNTTSFRTEKDAFGNANSARGFPVIDRMKAAVESACPRTVSCADLLTIAAQQSVTLAGGPSWRVPLGRRDSLQAFLDLANANLPAPFFTLPQLKDSFRNVGLNRSSDLVALSGGHTFGKNQCRFIMDRLYNFSNTGLPDPTLNTTYLQTLRGLCPLNGNLSALVDFDLRTPTIFDNKYYVNLEEQKGLIQSDQELFSSPNATDTIPLVRSFANSTQTFFNAFVEAMDRMGNITPLTGTQGQIRLNCRVVNSNS
- effect of additive on PaLPMO9H-FgCelDH7C synergy / LPMO activity ([8]; Avicel, 18 h at 35° C., HRP or SOD added): inhibitory of the LPMO activity; also recorded: abolished the activity
